The values below come from ChEMBL document CHEMBL1138755, “A peptide nucleic acid-neamine conjugate that targets and cleaves HIV-1 TAR RNA inhibits viral replication” (J Med Chem, 2004).

The subject of this assay is Human immunodeficiency virus 1. In words: Ability of the conjugate to block HIV-1 production when supplemented in a culture medium; NI= No inhibition of the HIV-1 replication even at concentration >5 uM. The assay is classed as functional, organism-based.

With `NC[C@H]1O[C@H](O[C@H]2[C@H](O)[C@@H](O)[C@H](N)C[C@@H]2N)[C@H](N)[C@@H](O)[C@@H]1O`, the inhibition result was “No inhibition”.
